Data taken from paper PMC8268575 (International Journal of Molecular Sciences, 2021).
Entries after “also recorded” stand apart in the source; their conditions may differ.

How the values were obtained:
HUVEC = assay: Substrate cleavage in HUVEC, supernatant analysed by MALDI-TOF/TOF; assay type: in vitro ADME, human; details: PRCP-inhibited (1 µM compound 8o) or PRCP/ACE2-inhibited HUVEC compared with control or ACE2-inhibited (1 µM DX600) HUVEC, 100 µM (pyr)-apelin-13, n = 4
Experimental: (§1) The experiment was independently conducted 4 times. […] The supernatants were desalted and concentrated by use of C18 ZipTips (Merck-Millipore, Burlington, MA, USA) and eluted directly on the MALDI target in 70% acetonitrile/0.1% TFA. Subsequently, a MALDI matrix solution of 2.5 mg/mL α-cyano-4-hydroxycinnamic acid in 70% acetonitrile/0.1% TFA was applied on each spot, air-dried at room temperature, and the target was introduced into a 4800 plus MALDI TOF/TOF^TM Analyzer. Mass spectrometry (MS) spectra (mass range: 600–4000 Da) were acquired in positive reflector mode with a laser intensity of 5000. To confirm the identity of the most important peptides, MS/MS spectra were generated by use of collision induced dissociation with a laser intensity of 5500. Calibration was done during analysis using the 6-peptide mixture (AB Sciex, Framingham, MA, USA). Mass spectra were generated by use of the 4000 Series Explorer and analyzed by mMas. […] The ratio of the peak intensity of the cleaved substrate to the peak intensity of the intact substrate is an indication for the C-terminal cleavage of the substrates. To check for additional cleavage sites, a search for other product peaks was completed. Statistical analysis was performed using SPSS software version 27 (IBM). Two-way ANOVA analysis was conducted to examine the effect of the two independent variables (treatment duration and treatment option) on the ratio of the peak intensities.

HAoEC = assay: Substrate cleavage in HAoEC, supernatant analysed by MALDI-TOF/TOF; assay type: in vitro ADME, human; details: all inhibitor-treated HAoEC (1 µM compound 8o, 1 µM DX600 or both) compared with control, 100 µM (pyr)-apelin-13, n = 4
Experimental: as §1

recombinant human PREP [1] = target: T1, recombinant human PREP (Homo sapiens, UniProt P48147); assay: Cleavage by recombinant PREP, MALDI-TOF/TOF; details: pH 7.4 (0.1 M potassium phosphate, 1 mM EDTA, 5 mM DTT), 100 µM substrate, 0 s to 1 h
T1 sequence (P48147 1-710): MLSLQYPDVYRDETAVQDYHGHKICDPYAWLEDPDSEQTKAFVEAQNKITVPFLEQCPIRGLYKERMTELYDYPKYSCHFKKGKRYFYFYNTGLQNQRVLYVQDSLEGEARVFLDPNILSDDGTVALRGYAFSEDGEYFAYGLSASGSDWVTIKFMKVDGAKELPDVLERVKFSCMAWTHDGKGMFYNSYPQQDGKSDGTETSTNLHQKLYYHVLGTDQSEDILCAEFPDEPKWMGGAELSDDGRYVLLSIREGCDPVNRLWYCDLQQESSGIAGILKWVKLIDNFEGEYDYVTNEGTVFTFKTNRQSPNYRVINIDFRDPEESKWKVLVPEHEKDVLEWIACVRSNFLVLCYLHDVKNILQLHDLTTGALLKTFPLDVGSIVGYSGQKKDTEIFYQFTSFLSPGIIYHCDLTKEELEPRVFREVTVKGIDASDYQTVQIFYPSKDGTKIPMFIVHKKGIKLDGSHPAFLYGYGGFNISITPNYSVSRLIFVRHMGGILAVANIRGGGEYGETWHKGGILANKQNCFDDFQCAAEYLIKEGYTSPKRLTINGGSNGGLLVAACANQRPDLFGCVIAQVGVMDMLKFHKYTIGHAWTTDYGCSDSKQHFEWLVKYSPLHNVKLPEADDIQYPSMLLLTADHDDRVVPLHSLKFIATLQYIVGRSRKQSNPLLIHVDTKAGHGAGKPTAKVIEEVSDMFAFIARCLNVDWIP
Experimental: Supplementary Material File S3. Cleavage by recombinant PREP
Recombinant human PREP, expressed in BL21 (DE3) cells as previously described, was […]
(Laboratory for Medicinal Chemistry, University of Antwerp) or vehicle control at pH 7.4 (0.1 M potassium phosphate, 1 mM EDTA and 5 mM DTT). 100 μM substrate ((pyr)-apelin-13, (pyr)-apelin-13(1-12), Ang II or α-MSH 1-13) or vehicle control (PBS) was added. The reaction was stopped by acidification (pH<3) with 0.1% TFA after different time periods (0 s, 30 s, 1 min, 5 min, 15 min, 30 min or 1 h) and samples were stored at -80 °C.
A search for product peaks of the different peptides was conducted.
1. Van Elzen, R.; Schoenmakers, E.; Brandt, I.; Van Der Veken, P.; Lambeir, A.M.
Ligand-induced conformational changes in prolyl oligopeptidase: A kinetic approach.

[2] = HAoEC, 10,000 cells per well, in assay medium; supernatant analysed; details: human, 37 °C, up to 24 h
[3] = HUVEC, 10,000 cells per well, in assay medium; supernatant analysed; details: human, 37 °C, up to 24 h
PRCP [4] = assay: PRCP activity (RP-HPLC, Z-Pro-Phe) after pro-inflammatory stimulation of HUVEC; assay type: cell-based, human; details: 16 h, 200 ng/mL LPS, 10 ng/mL TNFα or 5 ng/mL IL-1β; for PRCP activity in the cell lysate versus vehicle control: Kruskal-Wallis p = 0.066; for PRCP activity in the supernatant versus vehicle control: n = 4–6
Experimental: (§2) HUVEC and HAoEC were seeded in a 6-well plate at a density of 2.5 × 10^5 cells per well in 2 mL full medium for 24 h. Subsequently, cells were treated with 200 ng/mL LPS, 10 ng/mL TNFα, 5 ng/mL IL-1β, or vehicle control for 16 h. Subsequently, supernatants were collected and concentrated four times for PRCP activity measurements using Centriprep® Centrifugal Filter Devices, 30 K (Merck-Millipore, Burlington, MA, USA). For PRCP activity measurement, cells were collected per well and lysed 1 h on ice in 75 µL lysis buffer (1% octylglucoside, 10 mM EDTA, 70 µg/mL aprotinin, 50 mM Tris pH 8.3). Appropriate stimulation was confirmed by determining interleukin-6 (IL-6) and interleukin-8 (IL-8) levels in the 16 h aspirate by use of ELISA (Supplementary Materials File S7).
(§3) PRCP activity was measured in the cellular supernatant and cell lysate using a validated high-performance liquid chromatography (HPLC) method as described previously. Ten µL of each sample was incubated in duplicate with 75 µL 8 mM Z-Pro-Phe at pH 5 (0.1 M Natrium Acetate, 10 mM EDTA) for 2 h at 37 °C. To stop the enzymatic reaction, 75 µL stop solution (10% perchloric acid and 20% acetonitrile in purified water) was added and samples were centrifuged at 12,000× g for 10 min at 4 °C. Ten µL of the supernatant was injected into a reversed phase HPLC system (Shimadzu, Kioto, Japan) and the enzymatically formed Z-Pro was determined by its UV absorbance at 210 nm. Quantification was performed by peak height measurements. The PRCP activity is expressed as units per gram (U/g) protein for the cell lysate or units per liter (U/L) for the supernatant. One unit defines the amount of enzyme that hydrolyses 1 μmol of substrate per minute. Protein concentrations were determined via the Bradford method with bovine serum albumin as the standard protein. Statistical analyses were performed using SPSS software version 27 (IBM) and graphs were designed using Graphpad Prism 9 software. Differences in PRCP activity in the cell lysate and supernatant between control and stimulated cells were evaluated by Kruskal-Wallis and Mann-Whitney U-tests. Manual Bonferroni-correction was assessed for multiple testing based on relevant pairwise comparisons. Significant results are indicated with an asterisk (* p < 0.05, ** p < 0.01).

PRCP [5] = assay: PRCP activity (RP-HPLC, Z-Pro-Phe) after pro-inflammatory stimulation of HAoEC; assay type: cell-based, human; details: 16 h, 200 ng/mL LPS, 10 ng/mL TNFα or 5 ng/mL IL-1β; for PRCP activity in the cell lysate versus vehicle control: Kruskal-Wallis p = 0.563; for PRCP activity in the supernatant versus vehicle control: n = 4–6
Experimental: as §2, §3

ACE2 [6] = assay: ACE2 activity (Mca-Ala-Pro-Lys(Dnp)-OH) after pro-inflammatory stimulation of HUVEC; assay type: cell-based, human; details: 16 h, 200 ng/mL LPS, 10 ng/mL TNFα or 5 ng/mL IL-1β, n = 4-6, p = 0.098
Experimental: (§4) Supplementary Material File S2. ACE2 activity measurement
(§5) HUVEC and HAoEC were seeded in a 6-well plate at a density of 2.5x10^5 cells per well in 2 mL full medium for 24 h. Cells were treated with 200 ng/mL LPS, 10 ng/mL TNFα, 5 ng/mL IL-1β or vehicle control for 16 h. Supernatants were collected and concentrated four times using Centriprep Centrifugal Filter Devices, 30 K (Merck-Millipore). Cells were collected per well and lysed 1 h on ice in 75 µL lysis buffer (1% octyl glucoside, 10 mM EDTA, 70 µg/mL aprotinin, 50 mM Tris pH 8.3).
(§6) ACE2 activity was measured using the substrate Mca-Ala-Pro-Lys(Dnp)-OH (Bachem).
(§7) Samples were incubated with 100 µM of the substrate at pH 6.5 (50 mM MES, 300 mM NaCl, 10 µM Zn Cl2, 0.01% Triton X-100) in a black 96-well plate and ACE2 activity was measured kinetically for 1 h at 37 °C (λex=320 nm, λem=405 nm), using the Infinite 200 microplate reader (Tecan) and the Magellan software was used to process the data. Concentration of the generated Mca-Ala-Pro was determined by means of a standard curve. Specificity was determined by pre-incubating the samples for 15 min with 1 µM of the specific ACE2-inhibitor DX600. The ACE2 activity is expressed as units per gram (U/g) protein for the cell lysate. […] Protein concentrations were determined via the Bradford method with BSA as the standard protein. […]

ACE2 [7] = assay: ACE2 activity (Mca-Ala-Pro-Lys(Dnp)-OH) after pro-inflammatory stimulation of HAoEC; assay type: cell-based, human; details: 16 h, 200 ng/mL LPS, 10 ng/mL TNFα or 5 ng/mL IL-1β, n = 4-6, p = 0.422
Experimental: as §4, §5, §6, §7

PRCP [8] = assay: in vitro; details: cited from earlier work
rat plasma = details: cited from earlier work
human plasma = details: cited from earlier work
mouse plasma = details: cited from earlier work
[9] = system: Angiotensin-converting enzyme 2 (ACE2, EC 3.4.17.23); details: cited from earlier work
[10] = human plasma of healthy volunteers; details: cited from earlier work
[11] = 24 h cellular supernatant of HUVEC (assay medium), in the absence of cells; details: human, 37 °C, up to 1 h
Recombinant human PREP [12] = assay: Recombinant human PREP at pH 7.4 (0.1 M potassium phosphate, 1 mM EDTA and 5 mM DTT); details: up to 1 h

Row | Molecule | cleaved bond [2] | cleaved bond [3] | PRCP activity in the cell lysate versus vehicle control (PRCP [4]) | PRCP activity in the supernatant versus vehicle control (PRCP [4]) | PRCP activity in the cell lysate versus vehicle control (PRCP [5]) | PRCP activity in the supernatant versus vehicle control (PRCP [5]) | ACE2 activity in the cell lysate versus vehicle control (ACE2 [6]) | ACE2 activity in the cell lysate versus vehicle control (ACE2 [7]) | further results
1 | CSCC[C@H](NC(=O)[C@@H]1CCCN1C(=O)CNC(=O)[C@H](CCCCN)NC(=O)[C@H](Cc1c[nH]cn1)NC(=O)[C@H](CO)NC(=O)[C@H](CC(C)C)NC(=O)[C@H](CCCNC(=N)N)NC(=O)[C@@H]1CCCN1C(=O)[C@H](CCCNC(=N)N)NC(=O)[C@@H]1CCC(=O)N1)C(=O)N1CCC[C@H]1C(=O)O [(pyr)-apelin-13(1–12)] |  |  |  |  |  |  |  |  | (pyr)-apelin-13(1–12) detected in supernatant after 24 h (HUVEC): Significantly less; (pyr)-apelin-13(1–12) observed in supernatant after 24 h (HAoEC): significantly less; Cleavage by recombinant human PREP (recombinant human PREP [1]): did not cleave
2 | Ac-SYSMEHFRWGKPV-NH₂ | P12-V13 | P12-V13 |  |  |  |  |  |  | fragment found [2]: α-MSH 1-10; fragment found [3]: α-MSH 1-10
3 | IL-1β: pro-inflammatory stimulus, 5 ng/mL |  |  | no difference | increase in PRCP activity | no difference | increase in PRCP activity | No difference | No difference | 
4 | TNFα |  |  | no difference | increase in PRCP activity | no difference | increase in PRCP activity | No difference | No difference | 
5 | pERPRLSHKGPMPF | P12-Phe13, 8 h; also recorded: Ser6-His7, 8 h | P12-Phe13, 24 h |  |  |  |  |  |  | cleaved bond (PRCP [8]): P12-Phe13; cleaved bond (rat plasma): Leu5-Ser6, first_seen; also recorded: Ser6-His7; cleaved bond (human plasma): Leu5-Ser6, first_seen; also recorded: Ser6-His7; cleaved bond (mouse plasma): Leu5-Ser6, first_seen; also recorded: Ser6-His7; cleaved bond [9]: P12-Phe13; fragment found [10]: (pyr)-apelin-13(1-6); not cleaved [3]: In HUVEC, this product could not be detected; cleaved bond [11]: P12-Phe13, 1 h; not cleaved (Recombinant human PREP [12]): Only the peaks corresponding with the intact peptides could be observed
